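In this assay, cells in 96-well plates receive the compound at five concentrations for 48 hours. Endpoints are linearly interpolated between the surrounding concentrations. GI50 marks 50% less growth.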 Activity calls are given as the source filed them. Cut-off read from the data, not from the text of the source: active = GI50 up to about 1.1 µM and inactive = higher. Peptide text beside a SMILES is read from it. * marks the point of attachment. OSu = O=C1CCC(=O)N1O*
How the values were obtained:
Experiment in all cases: growth of human tumour cells (NCI), 48 h
ACHN = tested on: ACHN
CAKI-1 = tested on: CAKI-1
CCRF-CEM = tested on: CCRF-CEM
EKVX = tested on: EKVX
HCC 2998 = tested on: HCC 2998
HOP-92 = tested on: HOP-92
HT-29 = tested on: HT-29
KM12 = tested on: KM12
M14 = tested on: M14
NCI-H460 = tested on: NCI-H460
RPMI-8226 = tested on: RPMI-8226
SF-539 = tested on: SF-539
SNB-75 = tested on: SNB-75
SR = tested on: SR
SW-620 = tested on: SW-620
UACC-257 = tested on: UACC-257
NCI/ADR-RES = tested on: NCI/ADR-RES
DU-145 = tested on: DU-145
MDA-MB-231 = tested on: MDA-MB-231
MDA-N = tested on: MDA-N

Measured: GI50

O=C1c2cccc3cc([N+](=O)[O-])cc(c23)C(=O)N1NC1=NCCN1
inactive: ACHN > 100 µM | CAKI-1 > 100 µM | CCRF-CEM > 100 µM | EKVX > 100 µM | HCC 2998 > 100 µM | HOP-92 > 100 µM | HT-29 > 100 µM | KM12 > 100 µM | M14 > 100 µM | NCI-H460 > 100 µM | RPMI-8226 > 100 µM | SF-539 > 100 µM | SNB-75 > 100 µM | SR > 100 µM | SW-620 > 100 µM | UACC-257 > 100 µM

N=c1c2ccccc2nc2oc3ccccc3n12
inactive: ACHN 30.5 µM | CAKI-1 44.4 µM | CCRF-CEM 55 µM | EKVX 1.91 µM | HCC 2998 > 100 µM | HOP-92 26.5 µM | HT-29 > 100 µM | NCI-H460 > 10 µM | NCI/ADR-RES 31.5 µM | RPMI-8226 > 100 µM | SF-539 37.2 µM | SW-620 93.5 µM | UACC-257 68.1 µM

O=C1c2ccccc2C(=O)c2sc(Nc3ccc(Cl)c(Cl)c3)nc21
inactive: ACHN 1.75 µM | CAKI-1 3.07 µM | CCRF-CEM 1.85 µM | DU-145 18.8 µM | EKVX 14.3 µM | HCC 2998 15.3 µM | HOP-92 13.3 µM | HT-29 19.7 µM | KM12 7.83 µM | M14 3.22 µM | MDA-MB-231 2.17 µM | NCI-H460 12.5 µM | RPMI-8226 2.02 µM | SF-539 4.38 µM | SNB-75 8.05 µM | SR 2.52 µM | SW-620 1.61 µM | UACC-257 4.01 µM

c1ccc(CCN2CCc3[nH]c4ccccc4c3C2)cc1
inactive: ACHN 28.1 µM | CCRF-CEM 32.6 µM | DU-145 > 100 µM | EKVX 33.4 µM | HCC 2998 16.3 µM | HOP-92 11.9 µM | HT-29 14.1 µM | KM12 17.3 µM | M14 17.1 µM | MDA-MB-231 33 µM | NCI-H460 13.7 µM | NCI/ADR-RES 20.3 µM | RPMI-8226 > 10 µM | SF-539 22.8 µM | SNB-75 29 µM | SR 27.9 µM | SW-620 16.1 µM | UACC-257 14.9 µM

CC(C)C(=O)Nc1nc2[nH]cnc2c(=O)[nH]1
inactive: ACHN > 100 µM | CAKI-1 > 100 µM | CCRF-CEM > 100 µM | EKVX > 100 µM | HCC 2998 > 100 µM | HOP-92 > 100 µM | HT-29 > 100 µM | KM12 > 100 µM | M14 > 100 µM | NCI-H460 > 100 µM | RPMI-8226 > 100 µM | SF-539 > 100 µM | SNB-75 > 100 µM | SR > 100 µM | SW-620 > 100 µM | UACC-257 > 100 µM

COC(=O)c1cc2c(nc1C)-c1ccccc1OS2(=O)=O
inactive: ACHN > 100 µM | CAKI-1 > 100 µM | CCRF-CEM > 100 µM | EKVX > 100 µM | HCC 2998 > 100 µM | HOP-92 24.6 µM | HT-29 > 100 µM | KM12 > 100 µM | M14 > 100 µM | NCI-H460 > 100 µM | RPMI-8226 > 100 µM | SF-539 54.5 µM | SNB-75 17.9 µM | SR > 100 µM | SW-620 > 100 µM | UACC-257 > 100 µM

OCC1C(O)C(O)[C@@H]2SCCN12 (stereo partly drawn)
inactive: ACHN > 100 µM | CAKI-1 > 100 µM | CCRF-CEM > 100 µM | DU-145 > 100 µM | EKVX > 100 µM | HCC 2998 > 100 µM | HOP-92 > 100 µM | HT-29 > 100 µM | KM12 > 100 µM | M14 > 100 µM | MDA-MB-231 > 100 µM | NCI-H460 > 100 µM | NCI/ADR-RES > 100 µM | RPMI-8226 > 100 µM | SNB-75 > 100 µM | SR > 100 µM | SW-620 > 100 µM | UACC-257 > 100 µM

C/C(CCn1[nH]c(=O)ccc1=O)=N\Nc1ccc([N+](=O)[O-])cc1[N+](=O)[O-]
inactive: ACHN 90.8 µM | CAKI-1 > 100 µM | CCRF-CEM > 100 µM | EKVX > 100 µM | HCC 2998 > 100 µM | HOP-92 > 100 µM | HT-29 > 100 µM | KM12 33.5 µM | M14 26 µM | NCI-H460 37 µM | RPMI-8226 > 100 µM | SF-539 95.5 µM | SNB-75 > 100 µM | SR > 100 µM | SW-620 > 100 µM | UACC-257 > 100 µM

N=C1OC(c2cccc(Cl)c2)C(NNS(=O)(=O)c2ccccc2)=C1O (stereo not drawn)
inactive: ACHN 31.6 µM | CAKI-1 31.4 µM | CCRF-CEM 2.32 µM | DU-145 > 100 µM | EKVX 68.4 µM | HCC 2998 36.4 µM | HOP-92 23.6 µM | HT-29 19.9 µM | KM12 47.8 µM | M14 22.4 µM | MDA-MB-231 18.2 µM | MDA-N 14.5 µM | NCI-H460 44.1 µM | RPMI-8226 10.9 µM | SF-539 33.4 µM | SNB-75 26.9 µM | SR 2.37 µM | SW-620 12.8 µM | UACC-257 33.3 µM

CCOC(=O)C1=C(C)N(CC(C)C)C2(O)C(OC)CC(=O)C3C(=O)N(c4ccccc4)C(=O)C132 (stereo not drawn)
inactive: ACHN 24.9 µM | CAKI-1 37 µM | CCRF-CEM 40.4 µM | DU-145 52 µM | EKVX > 100 µM | HCC 2998 24.8 µM | HOP-92 45.6 µM | HT-29 20.7 µM | KM12 25.9 µM | M14 38.3 µM | MDA-MB-231 89.1 µM | NCI-H460 36.5 µM | NCI/ADR-RES 53.8 µM | RPMI-8226 33 µM | SF-539 49.4 µM | SNB-75 20 µM | SR 21.4 µM | SW-620 34 µM | UACC-257 37.4 µM

CN(C)c1n/c(=N/c2ncn[nH]2)ss1
inactive: ACHN > 100 µM | CAKI-1 > 100 µM | CCRF-CEM > 100 µM | EKVX > 100 µM | HCC 2998 > 100 µM | HOP-92 > 100 µM | HT-29 > 100 µM | KM12 > 100 µM | M14 > 100 µM | NCI-H460 > 100 µM | RPMI-8226 > 100 µM | SF-539 > 100 µM | SNB-75 > 100 µM | SR > 100 µM | SW-620 > 100 µM | UACC-257 > 100 µM

CN1CCC(=O)/C(=C/c2ccccc2)C1
inactive: ACHN 17.9 µM | CAKI-1 17.9 µM | CCRF-CEM 8.93 µM | EKVX 23 µM | HCC 2998 10.9 µM | HOP-92 17.5 µM | HT-29 3.32 µM | KM12 2.23 µM | M14 13.2 µM | NCI-H460 16.3 µM | RPMI-8226 2.86 µM | SF-539 17.7 µM | SNB-75 6.85 µM | SR 2.91 µM | SW-620 4.99 µM | UACC-257 14.7 µM

CC1(C)CC(N(C(=O)/C=C/c2ccc([N+](=O)[O-])o2)C2CCCCC2)CC(C)(C)N1
inactive: ACHN 12.8 µM | CAKI-1 5.52 µM | CCRF-CEM 3.25 µM | EKVX 13.9 µM | HCC 2998 11.3 µM | HOP-92 3.65 µM | HT-29 4.49 µM | KM12 10.3 µM | M14 2.82 µM | NCI-H460 3.71 µM | RPMI-8226 3.29 µM | SF-539 9.86 µM | SNB-75 10.5 µM | SR 5.89 µM | SW-620 2.55 µM | UACC-257 11.1 µM

Cc1ccc(S(=O)(=O)NC(=O)Nc2cccc(S(N)(=O)=O)c2)cc1
inactive: ACHN > 100 µM | CAKI-1 > 100 µM | DU-145 > 100 µM | EKVX > 100 µM | HCC 2998 > 100 µM | HOP-92 > 100 µM | HT-29 > 100 µM | KM12 > 100 µM | M14 > 100 µM | MDA-MB-231 > 100 µM | NCI-H460 > 100 µM | NCI/ADR-RES > 100 µM | RPMI-8226 > 100 µM | SF-539 > 100 µM | SNB-75 > 100 µM | SR > 100 µM | SW-620 > 100 µM

CC(=O)OC1CC[C@@]2(C)C(CC[C@]3(C)C2CC=C2[C@@H]4CC(C)(C)CCC4(C)CCC23C)[C@@]1(C)C(=O)O (stereo partly drawn)
inactive: ACHN 12.1 µM | CAKI-1 18.5 µM | CCRF-CEM 23.4 µM | DU-145 16.6 µM | EKVX 16.1 µM | HCC 2998 14.5 µM | HOP-92 20.4 µM | HT-29 15.9 µM | KM12 12 µM | M14 19.9 µM | MDA-MB-231 20.9 µM | MDA-N 21.9 µM | NCI-H460 10.7 µM | RPMI-8226 10.8 µM | SF-539 19.9 µM | SNB-75 23 µM | SR 22.8 µM | SW-620 13.5 µM | UACC-257 19.9 µM

NCCCCC(NC(=O)C(N)Cc1ccc(O)cc1)C(=O)NC(Cc1ccc(O)cc1)C(=O)NC(CCCCN)C(=O)ON1C(=O)CCC1=O (stereo not drawn) (H-YKYK-OSu; configuration not given here)
inactive: ACHN > 100 µM | EKVX > 100 µM | HCC 2998 > 100 µM | HOP-92 > 100 µM | HT-29 > 100 µM | KM12 > 100 µM | M14 > 100 µM | MDA-MB-231 > 100 µM | MDA-N > 100 µM | NCI-H460 > 100 µM | RPMI-8226 > 100 µM | SNB-75 > 100 µM | SR > 100 µM | SW-620 > 100 µM | UACC-257 > 100 µM
